US11111238B2, “Coumarin derivatives, processes for their preparation and uses thereof for the treatment of cancer” (Lead Discovery Center GmbH, priority 2017, dated 2021)

Tests used:
[1] = molecular target: mitochondrial RNA-polymerase (POLRMT) (Mus musculus, UniProt Q8BKF1); assay: Homogeneous TR-FRET assay for mitochondrial transcription activity; assay type: biochemical; conditions: homogeneous TR-FRET assay according to Example 4; activity class
Procedure, shortened: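 TR-FRET read-out (340 nm excitation, 665 nm emission) of a 407 bp transcript captured by Eu-streptavidin/biotin donor and ATTO647N acceptor DNA probes after EDTA stop. Transcription ran 2 h at RT with 500 μM […], mouse POLRMT/TFAM/TFB2M and LSP-plasmid template, after 10 min compound preincubation (10 μM or dilution series).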

[2] = system: mitochondrial transcription (7S RNA) in HeLa cells; assay: Quantitative real time-PCR assay of inhibition of mitochondrial transcription (cellular qPCR assay IMT); assay type: cell-based; conditions: Homo sapiens, 4 h compound incubation, qRT-PCR according to Example 5, activity class
Procedure: Quantitative real-time PCR (qRT-PCR), based on the TagMan™ (Thermo Fisher Scientific, Waltham Mass.) technology, was carried out essentially as described in (Heid et al., 1996). HeLa cells were plated one day before compound treatment in RPMI medium supplemented with 10% Fetal Calf Serum and 2 mM L-glutamine. Cells were incubated with dilution series of compounds or vehicle (DMSO) for 4 h, prior to harvest and extraction of the RNA using the RNeasy Mini Kit (Qiagen, Hilden D), according to the manufacturer's instructions. RNA concentrations were measured spectroscopically, using a NanoDrop-2000 (Thermo Fisher Scientific, Waltham Mass.) and normalized prior to cDNA synthesis, using a ‘High-Capacity cDNA Reverse Transcription Kit’ (Thermo Fisher Scientific, Waltham Mass.). qRT-PCR was carried out using the ‘TaqMan Fast Advance Master Mix’ (Thermo Fisher Scientific, Waltham Mass.) on a 7500 Fast Real-Time PCR machine (Applied Biosystems, Foster City Calif.)
For these measurements, three genes were used to compare the effect of the scrutinized compounds in relation to their concentration. The POLRMT-gene was used to detect potential influences on nuclear transcription. Mitochondrial transcription in vivo was monitored by measurements 7S RNA. The TBP (TATA-box binding protein) gene was employed as the control (housekeeping gene) during qRT-PCR. The short-lived mitochondrial 7S RNA, which is not post-transcriptionally stabilized, allowed us to monitor rapid changes in mitochondrial transcription activity following compound addition. Biological triplicates were analyzed using the comparative CT Method (ΔΔCt) method (Bubner and Baldwin, 2004) and reported as Rq % values (Rq=Relative quantification=2-ΔΔCt).

mitochondrial RNA-polymerase (POLRMT), sequence (Q8BKF1 42-1207): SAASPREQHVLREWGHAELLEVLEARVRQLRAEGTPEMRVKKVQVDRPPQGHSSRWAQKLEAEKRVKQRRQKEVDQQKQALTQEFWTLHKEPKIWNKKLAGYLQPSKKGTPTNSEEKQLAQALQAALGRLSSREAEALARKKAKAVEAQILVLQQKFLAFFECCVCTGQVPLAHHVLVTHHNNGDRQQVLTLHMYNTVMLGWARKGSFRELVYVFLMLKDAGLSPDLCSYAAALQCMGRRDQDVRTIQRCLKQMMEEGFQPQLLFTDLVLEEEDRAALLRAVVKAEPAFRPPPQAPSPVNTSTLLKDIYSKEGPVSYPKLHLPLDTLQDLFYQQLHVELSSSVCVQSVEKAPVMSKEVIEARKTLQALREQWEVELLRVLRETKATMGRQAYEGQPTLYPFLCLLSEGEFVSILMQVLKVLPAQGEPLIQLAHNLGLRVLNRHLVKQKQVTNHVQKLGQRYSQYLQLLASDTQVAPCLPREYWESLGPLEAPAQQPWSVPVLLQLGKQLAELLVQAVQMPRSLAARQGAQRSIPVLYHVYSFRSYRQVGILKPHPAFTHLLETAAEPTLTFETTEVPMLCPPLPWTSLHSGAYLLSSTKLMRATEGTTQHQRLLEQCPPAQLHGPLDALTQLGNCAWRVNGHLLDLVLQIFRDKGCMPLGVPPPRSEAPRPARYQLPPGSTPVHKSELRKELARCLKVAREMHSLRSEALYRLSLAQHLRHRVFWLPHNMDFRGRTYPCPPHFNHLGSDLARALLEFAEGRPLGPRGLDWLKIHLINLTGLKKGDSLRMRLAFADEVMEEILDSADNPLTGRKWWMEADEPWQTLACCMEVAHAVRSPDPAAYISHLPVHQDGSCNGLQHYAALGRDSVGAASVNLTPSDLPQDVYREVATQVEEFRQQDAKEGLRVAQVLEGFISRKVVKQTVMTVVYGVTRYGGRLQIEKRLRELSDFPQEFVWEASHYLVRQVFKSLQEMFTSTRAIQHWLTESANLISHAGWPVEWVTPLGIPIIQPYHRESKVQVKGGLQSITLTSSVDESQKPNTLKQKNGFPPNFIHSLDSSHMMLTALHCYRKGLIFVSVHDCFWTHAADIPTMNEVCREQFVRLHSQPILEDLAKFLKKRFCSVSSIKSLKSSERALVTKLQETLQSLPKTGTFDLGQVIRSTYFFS

SMILES | IC50 [1] | IC50 [2]
C[C@@H](Oc1ccc2c(-c3ccc(F)cc3Cl)cc(=O)oc2c1)C(=O)N1CCN(C)C(C(=O)O)C1 (mixture of isomers) [Compound 161, 1-methyl-4-[rac-(2R)-2-[4-(2-chloro-4-fluoro-phenyl)-2-oxo-chromen-7-yl]oxypropanoyl]piperazine-2-carboxylic acid] | 100 to 1000 nM | 500 to 5000 nM
CC(Oc1ccc2c(-c3ccccc3Cl)cc(=O)oc2n1)C(=O)N1CCC[C@H](C(=O)O)C1 (mixture of isomers) [Compound 170, rac-(3S)-1-[2-[4-(2-chlorophenyl)-2-oxo-pyrano[2,3-b]pyridin-7-yl]oxypropanoyl]piperidine-3-carboxylic acid] | 20 to 100 nM | 50 to 500 nM
Cc1ccccc1-c1cc(=O)oc2cc(OC(C)C(=O)N3CCCCC3)ccc12 (stereo not shown) [Compound 1, 7-[1-methyl-2-oxo-2-(1-piperidyl)ethoxy]-4-(o-tolyl)chromen-2-one] | < 20 nM | < 10 nM
CC(Oc1ccc2c(-c3ccccc3Cl)cc(=O)oc2c1)C(=O)N1CCCCC1 (stereo not shown) [Compound 2, 4-(2-chlorophenyl)-7-[1-methyl-2-oxo-2-(1-piperidyl)ethoxy]chromen-2-one] | < 20 nM | < 10 nM
Cc1ccccc1-c1cc(=O)oc2cc(OC(C)C(=O)N3CCCC(C(=O)O)C3)ccc12 (stereo not shown) [Compound 8, 1-[2-[4-(o-tolyl)-2-oxo-chromen-7-yl]oxypropanoyl]piperidine-3-carboxylic acid] | < 20 nM | < 10 nM
CC(Oc1ccc2c(-c3ccccc3Cl)cc(=O)oc2c1)C(=O)N1CCCC(C(=O)O)C1 (stereo not shown) [Compound 9, 1-[2-[4-(2-chlorophenyl)-2-oxo-chromen-7-yl]oxypropanoyl]piperidine-3-carboxylic acid] | < 20 nM | < 10 nM
Cc1ccccc1-c1cc(=O)oc2cc(OC(C)C(=O)N3CCCC(S(N)(=O)=O)C3)ccc12 (stereo not shown) [Compound 12, 1-[2-[4-(o-tolyl)-2-oxo-chromen-7-yl]oxypropanoyl]piperidine-3-sulfonamide] | < 20 nM | < 10 nM
CNC(=O)C1CCCN(C(=O)C(C)Oc2ccc3c(-c4ccccc4Cl)cc(=O)oc3c2)C1 (stereo not shown) [Compound 15, 1-[2-[4-(2-chlorophenyl)-2-oxo-chromen-7-yl]oxypropanoyl]-N-methyl-piperidine-3-carboxamide] | < 20 nM | < 10 nM
CNS(=O)(=O)C1CCCN(C(=O)C(C)Oc2ccc3c(-c4ccccc4C)cc(=O)oc3c2)C1 (stereo not shown) [Compound 18, N-methyl-1-[2-[4-(o-tolyl)-2-oxo-chromen-7-yl]oxypropanoyl]piperidine-3-sulfonamide] | < 20 nM | < 10 nM
CNC(=O)C1CCCN(C(=O)C(C)Oc2ccc3c(-c4ccccc4C)cc(=O)oc3c2)C1 (stereo not shown) [Compound 21, N-methyl-1-[2-[4-(o-tolyl)-2-oxo-chromen-7-yl]oxypropanoyl]piperidine-3-carboxamide] | < 20 nM | < 10 nM
C[C@@H](Oc1ccc2c(-c3ccccc3Cl)cc(=O)oc2c1)C(=O)N1CCC[C@H](C(=O)O)C1 [Compound 23, (3S)-1-[(2R)-2-[4-(2-chlorophenyl)-2-oxo-chromen-7-yl]oxypropanoyl]piperidine-3-carboxylic acid] | < 20 nM | < 10 nM
CC(Oc1ccc2c(-c3ccccc3Cl)cc(=O)oc2c1)C(=O)N1CCCC(S(N)(=O)=O)C1 (stereo not shown) [Compound 24, 1-[2-[4-(2-chlorophenyl)-2-oxo-chromen-7-yl]oxypropanoyl]piperidine-3-sulfonamide] | < 20 nM | < 10 nM
Cc1ccccc1-c1cc(=O)oc2cc(OC(C)C(=O)NC3CC3)ccc12 (stereo not shown) [Compound 25, N-cyclopropyl-2-[4-(o-tolyl)-2-oxo-chromen-7-yl]oxy-propanamide] | < 20 nM | < 10 nM
CC(Oc1ccc2c(-c3ccccc3Cl)cc(=O)oc2c1)C(=O)NC1CC1 (stereo not shown) [Compound 26, 2-[4-(2-chlorophenyl)-2-oxo-chromen-7-yl]oxy-N-cyclopropyl-propanamide] | < 20 nM | < 10 nM
Cc1ccccc1-c1cc(=O)oc2cc(O[C@H](C)C(=O)N3CCC[C@H](C(=O)O)C3)ccc12 [Compound 27, (3S)-1-[(2R)-2-[4-(o-tolyl)-2-oxo-chromen-7-yl]oxypropanoyl]piperidine-3-carboxylic acid] | < 20 nM | < 10 nM
CC(Oc1ccc2c(-c3ccccc3Cl)cc(=O)oc2c1)C(=O)N1CCC[C@H](C(=O)O)C1 (stereo partly drawn) [Compound 33, (3S)-1-[2-[4-(2-chlorophenyl)-2-oxo-chromen-7-yl]oxypropanoyl]piperidine-3-carboxylic acid] | < 20 nM | < 10 nM
Cc1ccccc1-c1cc(=O)oc2cc(O[C@H](C)C(=O)NC(C)C)ccc12 [Compound 36, (2R)-N-isopropyl-2-[4-(o-tolyl)-2-oxo-chromen-7-yl]oxy-propanamide] | < 20 nM | < 10 nM
C[C@@H](Oc1ccc2c(-c3ccc(F)cc3Cl)cc(=O)oc2c1)C(=O)N1CCC[C@H](C(=O)OCCN2CCOCC2)C1 [Compound 119, 2-morpholinoethyl (3S)-1-[(2R)-2-[4-(2-chloro-4-fluoro-phenyl)-2-oxo-chromen-7-yl]oxypropanoyl]piperidine-3-carboxylate] |  | < 10 nM
C[C@@H](Oc1ccc2c(-c3ccc(F)cc3Cl)cc(=O)oc2c1)C(=O)Nc1cccc(C(=O)O)n1 [Compound 151, 6-[[(2R)-2-[4-(2-chloro-4-fluoro-phenyl)-2-oxo-chromen-7-yl]oxypropanoyl]amino]pyridine-2-carboxylic acid] | < 20 nM | 
COC(=O)c1ccc(NC(=O)[C@@H](C)Oc2ccc3c(-c4ccc(F)cc4Cl)cc(=O)oc3c2)cn1 [Compound 153, methyl 5-[[(2R)-2-[4-(2-chloro-4-fluoro-phenyl)-2-oxo-chromen-7-yl]oxypropanoyl]amino]pyridine-2-carboxylate] | 20 to 100 nM | 
C[C@@H](Oc1ccc2c(-c3ccc(F)cc3Cl)cc(=O)oc2c1)C(=O)Nc1ccc(C(=O)O)nc1 [Compound 154, 5-[[(2R)-2-[4-(2-chloro-4-fluoro-phenyl)-2-oxo-chromen-7-yl]oxypropanoyl]amino]pyridine-2-carboxylic acid] | < 20 nM | 
COC(=O)c1cc(NC(=O)[C@@H](C)Oc2ccc3c(-c4ccc(F)cc4Cl)cc(=O)oc3c2)ccn1 [Compound 156, methyl 4-[[(2R)-2-[4-(2-chloro-4-fluoro-phenyl)-2-oxo-chromen-7-yl]oxypropanoyl]amino]pyridine-2-carboxylate] | 20 to 100 nM | 
COC(=O)[C@H]1CCN(C(=O)[C@@H](C)Oc2ccc3c(-c4ccc(F)cc4Cl)cc(=O)oc3c2)C1 [Compound 157, methyl (3S)-1-[(2R)-2-[4-(2-chloro-4-fluoro-phenyl)-2-oxo-chromen-7-yl]oxypropanoyl]pyrrolidine-3-carboxylate] | 20 to 100 nM | 
Cc1cc(F)ccc1-c1cc(=O)oc2cc(O[C@H](C)C(=O)N3CCC[C@H](C(=O)O)C3)ccc12 [Compound 158, (3S)-1-[(2R)-2-[4-(4-fluoro-2-methyl-phenyl)-2-oxo-chromen-7-yl]oxypropanoyl]piperidine-3-carboxylic acid] | < 20 nM | 
C[C@@H](Oc1ccc2c(-c3ccc(F)cc3Cl)cc(=O)oc2c1)C(=O)Nc1ccnc(C(=O)O)c1 [Compound 160, 4-[[(2R)-2-[4-(2-chloro-4-fluoro-phenyl)-2-oxo-chromen-7-yl]oxypropanoyl]amino]pyridine-2-carboxylic acid] | < 20 nM | 
C[C@@H](Oc1ccc2c(-c3ccccc3C#N)cc(=O)oc2c1)C(=O)N1CCC[C@H](C(=O)O)C1 [Compound 162, (3S)-1-[(2R)-2-[4-(2-cyanophenyl)-2-oxo-chromen-7-yl]oxypropanoyl]piperidine-3-carboxylic acid] | 20 to 100 nM | 
C[C@@H](Oc1ccc2c(-c3c(Cl)cccc3Cl)cc(=O)oc2c1)C(=O)N1CCC[C@H](C(=O)O)C1 [Compound 163, (3S)-1-[(2R)-2-[4-(2,6-dichlorophenyl)-2-oxo-chromen-7-yl]oxypropanoyl]piperidine-3-carboxylic acid] | 100 to 1000 nM | 
CCOC(=O)C(C)Oc1ccc2c(-c3ccccc3F)cc(=O)oc2c1 (stereo not shown) [Compound 175, ethyl 2-[4-(2-fluorophenyl)-2-oxo-chromen-7-yl]oxypropanoate] | 100 to 1000 nM | 
CCOC(=O)C(C)Oc1ccc2c(-c3c(F)cccc3F)cc(=O)oc2c1 (stereo not shown) [Compound 176, ethyl 2-[4-(2,6-difluorophenyl)-2-oxo-chromen-7-yl]oxypropanoate] | 1000 to 5000 nM | 
